The nature of series [1]: Dispersant binding reversibility: successive filtrations and re-dispersions in HEPES, followed by DLS. It is filed as physicochemical. The note with it: room temperature, anchor named, coupled to PEG(MW 5 kDa). The procedure:
DLS: DLS experiments were run on a Zetasizer Nano ZS (Malvern, UK) in the 173° backscattering mode. Because intensity weighted diameters scale with r^6 and thus large particles are predominant, volume weighted data which scale with r^3 were analyzed using the multiple narrow modes evaluation incorporated into the Malvern software. Temperature dependent DLS experiments have been performed in HEPES at an iron oxide nanoparticle concentration of 200 µg/ml. Solutions were filtered with 200 nm Minisart syringe filters (Sartorius, Germany) prior to DLS analysis. These suspensions were heated from 25 to 90°C in 5°C steps with 10 min equilibration time before the respective DLS experiment. The dispersant binding reversibility was tested on iron oxide nanoparticle HEPES solutions (500 µg/ml) at room temperature. Solutions were repeatedly filtered using Microcon filters with a cut-off of 30 kDa (Millipore, MA, USA) by centrifuging these solutions at […] for 20 min (MiniSpin, Vaudaux Eppendorf, Switzerland). After filtration, the filter cake was re-suspended in HEPES (0.5 ml) and equilibrated for 24 h at room temperature before the next DLS experiment was performed.
The binding reversibility of these dispersants was tested by successive filtrations and re-dispersions of the resulting iron oxide nanoparticle filter cakes in HEPES

Series [2] in a line: pKa determination by titration. It is filed as physicochemical. To be noted: titration in Millipore water containing 150 mM NaCl, for nitrocatechols and mimosine one of the pKa values. The procedure: pKa determination: 2 mM of the respective anchoring group was dissolved in Millipore water containing 150 mM NaCl. These solutions were titrated with 0.1 M HCl and NaOH respectively using a SevenMulti pH meter (Mettler Toledo, Switzerland).

Data on eight compounds can be found in patent EP2289553A1 (ETH Zurich, priority 2009, dated 2011).

Like-named read-outs stand apart in the source and are kept apart here. A value given as a limit tells only on which side of the number the result lay.

A word on the pKa: it is the negative logarithm of the acid dissociation constant. Consider `NC(Cc1cc(O)c(O)cc1[N+](=O)[O-])C(=O)O` (stereo not shown), for which, in series [1], the “number of filtrations for which nanoparticles remained stable” value is “more than 9 filtrations”. For the same compound, in series [2] (read-out: pKa), the pKa is roughly 6.5.

With `N[C@@H](Cc1ccc(O)c(O)c1)C(=O)O` [DOPA], the “number of filtrations within which nanoparticles agglomerated” value in series [1] was 5-7 filtrations. Also, the pKa in series [2] (read-out: pKa) was greater than 9.

On to `NCCc1ccc(O)c(O)c1` [dopamine], for which the “number of filtrations within which nanoparticles agglomerated” value in series [1] is 0-3 filtrations. Further, the pKa in series [2] (read-out: pKa) was greater than 9.

In the case of `NC(Cn1ccc(=O)c(O)c1)C(=O)O` (stereo not shown) [mimosine], the “number of filtrations within which nanoparticles agglomerated” value in series [1] is 5-7 filtrations. In series [2] (read-out: pKa), the pKa was roughly 6.5.

On to `NCCc1cc(O)c(O)cc1[N+](=O)[O-]` [nitrodopamine], for which, in series [2], the pKa result is “around 6.5”.

As for hydroxydopamine, the “number of filtrations within which nanoparticles agglomerated” value in series [1] was 0-3 filtrations. This compound also yielded a pKa in series [2] greater than 9.

As to hydroxypyridine, the “number of filtrations within which nanoparticles agglomerated” value in series [1] is listed as 0-3 filtrations.

Turning to hydroxypyrone, in series [1], the “number of filtrations within which nanoparticles agglomerated” value was 0-3 filtrations.
